# Assay results from patent US8404665B2, “In vivo use of glutathione S-transferase activated nitric oxide donors” (University of Utah Research Foundation, priority 2002, dated 2013).
# Columns and labels:
# [1] = mouse, in vivo, iv
# [2] = tested on: HL-60 cells; assay: HL-60 cell differentiation (Wright and non-specific esterase staining); assay type: cell-based, human; conditions: 0.5 uM, 3-5 days
# Protocol: Cell Growth, Differentiation and Apoptosis Assays. The number of viable cells was determined using the MTT assay according to the manufacturer's protocol (Promega, Madison, Wis.) or using a Coulter counter. Briefly, a MTT assay is an analytical technique that uses the dye dimethylthiazolyl-diphenyltetrazolium (MTT) which turns from yellow to brownish-purple as it is reduced in the mitochondria of living cells. The assay is useful in calorimetric quantitation of cell viability and proliferation. In contrast, cell differentiation was evaluated using Wright and Non-Specific Esterase (NSE) staining of cells collected on microscope slides by cytospin as previously described (Magrinat, G. et al. (1992) Blood 80: 1880-1884). Apoptosis was assayed by flow cytometry and by determining DNA fragmentation using agarose gel electrophoresis as previously described (Shami, P. J. et al. (1998) Leukemia 12: 1461-1466). For the flow cytometry assay, we used the propidium iodide staining method of Nicoletti et al. (Nicoletti, I. et al. (1991) J. Immunol. Methods 139: 271-279).
# HL-60 cells were treated with JS-K at a concentration of 0.5 uM for 3-5 days. […] JS-K appears to induce cell differentiation.
# [3] = tested on: rabbit thoracic aorta; assay: Rabbit aortic rings bioassay of NO activity (vasorelaxation)
# From the text: Preparation of Rabbit Aortic Rings for Bioassay of NO Activity. The preparation of rabbit aortic rings was similar to that described previously (Jia L and Furchgott R F (1993) J Pharmnacol Exp Ther 267: 371-378.), and the animal protocol was approved by the Institutional Animal Care and Use Committee. Briefly, a male New Zealand rabbit was anesthetized by an intravenous injection of sodium pentobarbital into a marginal ear vein. The descending thoracic aorta was quickly removed. The aortic rings (2 mm in length) were prepared and mounted in 20 ml of Krebs' solution (bubbled with 95% O2/5% CO2, 37° C.) in organ chambers. […] Rings were allowed to equilibrate for at least 90 min before experiments were initiated. Basal tension was maintained at approximately 3 g. To allow studies on relaxation, each ring was precontracted submaximally by addition of 50-100 nM phenylephine to the bathing solution. When the contraction had reached a steady state, JS-K was added successively to the bathing solution until the maximal relaxation was obtained. Hb and ODQ were also added to the bathing solution to investigate the mechanisms of action of JS-K.
# The ability of JS-K to function as a NO donor was examined in the rabbit thoracic aorta model. […]
# [4] = target: T1, hGSTP1-1 (Homo sapiens, UniProt P09211); assay: GST-catalysed GSH conjugation of JS-K and NO release; assay type: biochemical
# T1 construct: purchased Panvera (Madison, Wis.)
# T1 sequence (P09211 2-210 limits assumed): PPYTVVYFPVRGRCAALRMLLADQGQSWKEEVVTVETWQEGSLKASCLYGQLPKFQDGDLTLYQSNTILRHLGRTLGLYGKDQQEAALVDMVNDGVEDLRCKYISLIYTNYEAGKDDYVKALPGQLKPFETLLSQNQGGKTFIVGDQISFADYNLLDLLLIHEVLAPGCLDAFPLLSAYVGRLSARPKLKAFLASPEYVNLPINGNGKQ
# Protocol: (§1) Determination of Specific Activity of Human GSTs Toward JS-K. Purified preparations of recombinant hGSTA1-1, hGSTM1-1 and hGSTP1-1 were obtained from Panvera (Madison, Wis.). The activity of human GST toward CDNB was determined, as described by Habig et al. (Habig, W. H. et al. (1974) J. Biol. Chem. 249: 7130-7139), prior to activity measurements with JS-K to ensure that the enzyme preparations were catalytically active. For activity measurement toward JS-K, the reaction mixture in a final volume of 1 ml contained 100 mM potassium phosphate buffer (pH 6.5), 1 mM GSH, 0.045 mM JS-K, and an appropriate amount of human GST isoenzyme protein. The reaction was started by the addition of JS-K, and the rate of reaction was monitored by measuring decrease in absorbance of JS-K at 298 nm due to its utilization during reaction with GSH. The specific activity toward JS-K was calculated using an extinction coefficient of 18 mM^−1 cm^−1 at 298 nm.
# (§2) Measurement of NO Release. Chemiluminescence detection and quantification of NO evolving from the reactions of JS-K were conducted using an NO-specific Thermal Energy Analyzer (Model 502A, Thermedics, Analytical Instrument Division, Waltham, Mass.) essentially as previously described (Keefer, L. K. et al. (1996) Methods Enzymol. 268: 281-293). Briefly, pH 7.4 phosphate buffer containing 1 mM GSH was sparged with inert gas until a steady detector response was established. Where indicated, GSTs were added to a final concentration of 1.67 ug of enzyme/ml. The NO release profile was followed at 37° C. for 45 min after injecting JS-K at a final concentration of 133 nM to start the reaction. The resulting curve was integrated to quantify the amount of NO released/mole of compound.
# [5] = target: T2, hGSTA1-1 (Homo sapiens, UniProt P08263); assay: as above; assay type: biochemical
# T2 sequence (P08263 1-222): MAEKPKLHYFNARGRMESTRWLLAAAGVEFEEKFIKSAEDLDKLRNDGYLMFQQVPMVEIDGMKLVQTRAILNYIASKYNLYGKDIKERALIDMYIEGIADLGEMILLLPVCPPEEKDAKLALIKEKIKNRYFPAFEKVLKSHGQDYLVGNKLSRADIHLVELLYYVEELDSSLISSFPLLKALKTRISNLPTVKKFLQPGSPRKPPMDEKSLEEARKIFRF
# Protocol: as §1, §2
# [6] = target: T3, hGSTM1-1 (Homo sapiens, UniProt P09488); assay: as above; assay type: biochemical
# T3 construct: purchased Panvera (Madison, Wis.)
# T3 sequence (P09488 2-218): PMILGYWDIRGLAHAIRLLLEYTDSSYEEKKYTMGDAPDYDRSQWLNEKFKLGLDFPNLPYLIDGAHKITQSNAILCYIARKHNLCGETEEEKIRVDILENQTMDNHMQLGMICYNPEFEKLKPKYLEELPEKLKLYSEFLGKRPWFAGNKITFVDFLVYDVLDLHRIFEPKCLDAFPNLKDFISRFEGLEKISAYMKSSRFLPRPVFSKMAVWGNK
# Protocol: as §1, §2
# [7] = tested on: bacterial, viral, fungal or parasitic infection; assay: Treatment of bacterial, viral, fungal or parasitic infection in an individual; assay type: in vivo; conditions: therapeutically effective amount
# Protocol: An individual with a bacterial, viral, fungal or parasitic infection is administered a therapeutically effective amount of JS-K to treat such infection.
structure (smiles),measurement,setting,value
"CCOC(=O)N1CCN(/[N+]([O-])=N/Oc2ccc([N+](=O)[O-])cc2[N+](=O)[O-])CC1 [JS-K, O^2-(2,4-dinitrophenyl) 1-[(4-ethoxycarbonyl)piperazin-1-yl]diazen-1-ium-1,2-diolate]",peak blood concentration the dose would achieve,[1],approximately 68 μM
same,morphology by Wright stain,[2],morphologic changes consistent with a monocytic phenotype
same,percentage of HL-60 cells expressing NSE,[2]; from 1,40%
same,reversibility of vasoactivity,[3]; Hb and ODQ added,reversible in the presence of a NO scavenger and a specific inhibitor of the NO-sGC-cGMP pathway
same,concentration at which vasorelaxation reached a maximum,[3]; rings precontracted with phenylephine,100 nM
same,catalysis of NO release from JS-K with GSH,[4]; hGSTP1-1,only weakly
same,activity for GSH conjugation of JS-K,[4]; recombinant hGSTP1-1,much less active than hGSTA1-1 or hGSTM1-1
same,effect of JS-K exposure on enzyme's ability to catalyze CDNB's conjugation with GSH,[4]; up to 80 uM JS-K,unfettered ability
same,catalysis of JS-K conjugation,[5],much superior to hGSTP1-1
same,catalysis of JS-K conjugation,[6],much superior to hGSTP1-1
same,effect on infection,[7],causes elimination of such infection
